Entries after “also recorded” stand apart in the source; their conditions may differ. Where a name gives a salt, the structure may show the parent alone.
How the values were obtained:
[1] = Examination of variability of fusion temperature of sorbate Form A (DSC); type: physicochemical; details: listed as Experiment 13-Sample C1
Method: The factors that were assessed to explain the observed variability in fusion temperature found amongst Form A samples were sample loading, preferred orientation and particle size/homogeneity (Table 271). A weak relationship between sample loading and melt onset was observed, the remainder of the factors examined, appeared to be unrelated.
DSC data were collected from 25 to 220C at a scan rate of at 10° C. min^−1 (Table 292).

[2] = Stability panel of salts, open vial / double-bagged vial, t=5 d and 10 d; type: physicochemical; details: storage conditions not given
Text: FIG. 797 depicts the overlay of, from top to bottom, XRPD of Experiment 1-Sample A2 (Form A), Experiment 10-Sample A1 (5 days, open vial Pattern #2), Experiment 10-Sample A2 (10 days, open vial, Pattern #2), Experiment 10-Sample B1 (5 days, double-bagged vial, Form A) and Experiment 10-Sample B2 (10 days, double-bagged vial, Pattern #2).

[3] = Solubility determinations in SIF buffers FaSSIF, FeSSIF, FaSSGF (Example 8, Experiment 5); details: for solubility at 24 h: 37 °C, thermodynamic from solid; for fate of the suspended phase in FaSSGF (XRPD, 1H NMR): up to 24 h
How it was run: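 Suspensions in FaSSIF, FeSSIF or FaSSGF held at 37° C for 24 h, sampled at set time points and centrifuged. Pellets checked by XRPD, wet and dried, for form change.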

[4] = Dynamic vapour sorption (DVS) of selected salts (Example 8); type: physicochemical
How it was run: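 Sorption/desorption isotherms on 20–50 mg sample at 25°C after 60 min at 0% RH: 5% steps to 30%, 10% steps to 90%, then reverse. Equilibrium criterion dm/dt 0.002%/min; kinetic and isotherm curves derived.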

[5] = Equilibrium humidity evaluation 75% RH/40° C., 10 days (Example 8, Experiment 6); type: physicochemical; details: for change in chemical purity (trended HPLC): after 10 days; for powder diffraction pattern versus input (form stability): t=5 days and t=10 days
How it was run: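 Tabernanthalog salt powders (100 mg) were spread evenly in open vials and held at 40 °C and 75% RH. Sub-samples taken at 5 and 10 days were analysed by ^1H NMR, HPLC, XRPD, DSC, TGA and PLM for phase change, chemical degradation and residual solvent.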

[6] = DSC 25-220° C. at 10° C. min^−1, batches of sorbate salt Form A
[7] = DSC 25 to 220C at 10° C. min−1, tabernanthalog sorbate Form A samples
[8] = 75% RH/40° C., listed as Tabernanthalog sorbate salt (Form A)

COc1ccc2c3c([nH]c2c1)CCN(C)CC3 [tabernanthalog sorbate salt]
Endset [1, 6]: 144.5 °C
melt enthalpy [1, 6]: −105.8 Jg^−1
melt onset [1, 6]: 139.9 °C
peak [1, 6]: 142.5 °C
melt enthalpy [1, 7]: −105.78 Jg-1
melt onset [1, 7]: 139.87 °C
Endset ([1]; DSC melt endset, 25 to 220C at 10° C. min−1, tabernanthalog sorbate Form A samples): 144.46 °C
peak ([1]; DSC melt peak, 25 to 220C at 10° C. min−1, tabernanthalog sorbate Form A samples): 142.50 °C
CP after stability storage ([2]; end value (minimal reduction in CP)): 99.70 % area
CP before stability storage ([2]; starting value): 99.76 % area
Solubility in SIF buffers: FeSSIF ([3]; 37° C. up to 1 h): Insoluble
Solubility in SIF buffers: FaSSGF ([3]; 37° C. up to 24 h): Insoluble
solubility at 24 h ([3]; pH 5, fessif): > 30 mg/mL
solubility at 24 h ([3]; pH 6.5, fassif): > 30 mg/mL
solubility in the SIF buffers (in words) ([3]; FaSSIF, FeSSIF, FaSSGF): highly soluble in the SIF buffers examined; also recorded: highly soluble in the SIF buffers used, apart from FaSSGF
behaviour at 30 mg/ml in SIF buffers ([3]; FaSSIF, FeSSIF, FaSSGF, 37° C., 24 h): only remained suspended in FaSSGF
solubility in the SIF buffers (in words) ([3]; FaSSIF, FeSSIF, FaSSGF, listed as Tabernanthalog sorbate salt (Form A)): readily soluble in FaSSIF and FeSSIF during 24 h
Tabernanthalog RRT = 1.00 (trended HPLC data, chemical purity) ([3]; tabernanthalog sorbate salt, input before FaSSGF): 99.41
fate of the suspended phase in FaSSGF (XRPD, 1H NMR) ([3]; 37° C.): supported disproportionation
fate of the suspended phase in FaSSGF (XRPD, 1H NMR) ([3]; 37° C., listed as Tabernanthalog sorbate salt (Form A)): only exhibited disproportionation after 24 h in FaSSGF
DVS sorption/desorption isotherm ([4]; 0 to 90 to 0% RH, 25° C., dm/dt 0.002%/min): slightly hygroscopic up to 80% RH
DVS 0 to 90 to 0% RH (dm/dt <0.002%), mass change ([4]; desorption, 0.0% RH): −0.06%
DVS mass change ([4]; desorption, 0.0% RH, listed as tabernanthalog sorbate salt (Form A)): 0.06%
DVS mass change ([4]; desorption, 0.0% RH, listed as tabernanthalog sorbate salt (Form I)): −0.06%
DVS 0 to 90 to 0% RH (dm/dt <0.002%), mass change ([4]; desorption, 5.0% RH): −0.05%
DVS mass change ([4]; desorption, 5.0% RH, listed as tabernanthalog sorbate salt (Form A)): 0.05%
DVS mass change ([4]; desorption, 5.0% RH, listed as tabernanthalog sorbate salt (Form I)): −0.05%
DVS 0 to 90 to 0% RH (dm/dt <0.002%), mass change ([4]; desorption, 10.0% RH): −0.04%
DVS mass change ([4]; desorption, 10.0% RH, listed as tabernanthalog sorbate salt (Form A)): 0.04%
DVS mass change ([4]; desorption, 10.0% RH, listed as tabernanthalog sorbate salt (Form I)): −0.04%
DVS 0 to 90 to 0% RH (dm/dt <0.002%), mass change ([4]; desorption, 15.0% RH): −0.03%
DVS mass change ([4]; desorption, 15.0% RH, listed as tabernanthalog sorbate salt (Form A)): 0.03%
DVS mass change ([4]; desorption, 15.0% RH, listed as tabernanthalog sorbate salt (Form I)): −0.03%
DVS 0 to 90 to 0% RH (dm/dt <0.002%), mass change ([4]; desorption, 20.0% RH): −0.02%
DVS mass change ([4]; desorption, 20.0% RH, listed as tabernanthalog sorbate salt (Form A)): 0.02%
DVS mass change ([4]; desorption, 20.0% RH, listed as tabernanthalog sorbate salt (Form I)): −0.02%
DVS 0 to 90 to 0% RH (dm/dt <0.002%), mass change ([4]; desorption, 25.0% RH): −0.007%
DVS mass change ([4]; desorption, 25.0% RH, listed as tabernanthalog sorbate salt (Form A)): 0.00%
DVS mass change ([4]; desorption, 25.0% RH, listed as tabernanthalog sorbate salt (Form I)): −0.007%
DVS 0 to 90 to 0% RH (dm/dt <0.002%), mass change ([4]; desorption, 30.0% RH): 0.00%
DVS mass change ([4]; desorption, 30.0% RH): 0.00%
DVS 0 to 90 to 0% RH (dm/dt <0.002%), mass change ([4]; desorption, 40.0% RH): 0.03%
DVS mass change ([4]; desorption, 40.0% RH): 0.03%
DVS 0 to 90 to 0% RH (dm/dt <0.002%), mass change ([4]; desorption, 50.0% RH): 0.06%
DVS mass change ([4]; desorption, 50.0% RH): 0.06%
DVS 0 to 90 to 0% RH (dm/dt <0.002%), mass change ([4]; desorption, 60.0% RH): 0.18%
DVS mass change ([4]; desorption, 60.0% RH): 0.18%
DVS 0 to 90 to 0% RH (dm/dt <0.002%), mass change ([4]; desorption, 70.0% RH): 0.30%
DVS mass change ([4]; desorption, 70.0% RH): 0.30%
DVS 0 to 90 to 0% RH (dm/dt <0.002%), mass change ([4]; desorption, 80.0% RH): 0.48%
DVS mass change ([4]; desorption, 80.0% RH): 0.48%
DVS 0 to 90 to 0% RH (dm/dt <0.002%), mass change ([4]; desorption, 90.0% RH): 0.98%
DVS mass change ([4]; desorption, 90.0% RH): 0.98%
DVS 0 to 90 to 0% RH (dm/dt <0.002%), mass change ([4]; sorption, 0.0% RH): 0.00%
DVS mass change ([4]; sorption, 0.0% RH, dm/dt<0.002%): 0.00%
DVS 0 to 90 to 0% RH (dm/dt <0.002%), mass change ([4]; sorption, 5.0% RH): 0.0%
DVS mass change ([4]; sorption, 5.0% RH): 0.0%
DVS 0 to 90 to 0% RH (dm/dt <0.002%), mass change ([4]; sorption, 10.0% RH): 0.01%
DVS mass change ([4]; sorption, 10.0% RH): 0.01%
DVS 0 to 90 to 0% RH (dm/dt <0.002%), mass change ([4]; sorption, 15.0% RH): 0.01%
DVS mass change ([4]; sorption, 15.0% RH): 0.01%
DVS 0 to 90 to 0% RH (dm/dt <0.002%), mass change ([4]; sorption, 20.0% RH): 0.02%
DVS mass change ([4]; sorption, 20.0% RH): 0.02%
DVS 0 to 90 to 0% RH (dm/dt <0.002%), mass change ([4]; sorption, 25.0% RH): 0.03%
DVS mass change ([4]; sorption, 25.0% RH): 0.03%
DVS 0 to 90 to 0% RH (dm/dt <0.002%), mass change ([4]; sorption, 30.0% RH): 0.03%
DVS mass change ([4]; sorption, 30.0% RH): 0.03%
DVS 0 to 90 to 0% RH (dm/dt <0.002%), mass change ([4]; sorption, 40.0% RH): 0.05%
DVS mass change ([4]; sorption, 40.0% RH): 0.05%
DVS 0 to 90 to 0% RH (dm/dt <0.002%), mass change ([4]; sorption, 50.0% RH): 0.07%
DVS mass change ([4]; sorption, 50.0% RH): 0.07%
DVS 0 to 90 to 0% RH (dm/dt <0.002%), mass change ([4]; sorption, 60.0% RH): 0.10%
DVS mass change ([4]; sorption, 60.0% RH): 0.10%
DVS 0 to 90 to 0% RH (dm/dt <0.002%), mass change ([4]; sorption, 70.0% RH): 0.14%
DVS mass change ([4]; sorption, 70.0% RH): 0.14%
DVS 0 to 90 to 0% RH (dm/dt <0.002%), mass change ([4]; sorption, 80.0% RH): 0.21%
DVS mass change ([4]; sorption, 80.0% RH): 0.21%
DVS 0 to 90 to 0% RH (dm/dt <0.002%), mass change ([4]; sorption, 90.0% RH): 0.98%
DVS mass change ([4]; sorption, 90.0% RH): 0.98%
CP (chemical purity) after storage ([5]; 75% RH at 40° C., 10 days): 99.70 % area
change in chemical purity (trended HPLC) ([5]; 75% RH/40° C.): did not reduce significantly
change in chemical purity (trended HPLC) [5, 8]: lowest decrease in chemical purity
change in chemical purity (trended HPLC) ([5]; 75% RH/40° C., listed as tabernanthalog sorbate): lowest decrease in chemical purity
water uptake / hydrate formation (TGA, DSC) ([5]; 75% RH/40° C., t=5 d and t=10 d): did not exhibit any water absorption events
powder diffraction pattern versus input (form stability) ([5]; 75% RH/40° C.): matched the diffractogram of the input material
powder diffraction pattern versus input (form stability) [5, 8]: Form A was stable
Tabernanthalog RRT = 1.00 (trended HPLC data, chemical purity) ([5]; Sorbate salt, input before humidity exposure): 99.76
CP (chemical purity) before storage ([5]; input of 6-D): 99.76 % area

Source: patent US20230257385A1, “SALT AND SOLID FORMS OF TABERNANTHALOG” (priority 2021, published 2023)
